Source: US20240025844A1, “PHENYL UREA ANALOGS AS FORMYL PEPTIDE RECEPTOR 1 (FPR1) SELECTIVE AGONISTS” (Allergan, Inc., priority 2018, published 2024)

Legend:
[1] = target: T1, FPR2 (Homo sapiens, UniProt P25090); experiment: Compound-induced calcium activity on FLIPR Tetra in Gα16 cells stably expressing FPR2; assay type: cell-based; conditions: for FPR2 Ga16-HEK293 (Rel. eff.): relative efficacy, value in brackets, table head Ga16-HEK293, text CHO-Gα16 cells; for EC50: table head Ga16-HEK293, text CHO-Gα16 cells stably expressing FPR2, tested 0.61 to 10,000 nM
T1 construct: expressed in transfected cells; host or cells: CHO-Gα16 cells
T1 sequence (P25090 1-351): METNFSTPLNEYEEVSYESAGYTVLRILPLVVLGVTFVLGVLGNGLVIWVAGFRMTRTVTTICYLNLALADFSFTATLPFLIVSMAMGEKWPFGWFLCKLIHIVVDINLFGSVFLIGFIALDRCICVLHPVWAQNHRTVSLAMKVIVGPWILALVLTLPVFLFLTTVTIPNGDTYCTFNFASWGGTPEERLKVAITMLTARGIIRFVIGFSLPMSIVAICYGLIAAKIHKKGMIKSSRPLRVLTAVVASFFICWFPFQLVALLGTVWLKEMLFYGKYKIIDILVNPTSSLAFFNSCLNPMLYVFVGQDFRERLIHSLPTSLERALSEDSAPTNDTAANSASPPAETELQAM
Description: (§1) CHO-Gα16 cells stably expressing FPR1 or FPR2 were cultured in (F12, 10% FBS, 1% PSA, 400 μg/ml geneticin and 50 μg/ml hygromycin). In general, the day before the experiment, 18,000 cells/well were plated in a 384-well clear bottom poly-D-lysine coated plate. The following day the screening compound-induced calcium activity was assayed on the FLIPR^Tetra. The drug plates were prepared in 384-well microplates using the EP3 and the MultiPROBE robotic liquid handling systems. Compounds were tested at concentrations ranging from 0.61 to 10,000 nM. Results are expressed as EC50 (nM) and efficacy values.

[2] = target: T2, FPR1 (Homo sapiens, UniProt P21462); experiment: Compound-induced calcium activity on FLIPR Tetra in Gα16 cells stably expressing FPR1; assay type: cell-based; conditions: for FPR1 Ga16-HEK293 (Rel. eff.): relative efficacy, value in brackets, table head Ga16-HEK293, text CHO-Gα16 cells; for EC50: table head Ga16-HEK293, text CHO-Gα16 cells stably expressing FPR1, tested 0.61 to 10,000 nM
T2 construct: expressed in transfected cells; host or cells: CHO-Gα16 cells
T2 sequence (P21462 1-350): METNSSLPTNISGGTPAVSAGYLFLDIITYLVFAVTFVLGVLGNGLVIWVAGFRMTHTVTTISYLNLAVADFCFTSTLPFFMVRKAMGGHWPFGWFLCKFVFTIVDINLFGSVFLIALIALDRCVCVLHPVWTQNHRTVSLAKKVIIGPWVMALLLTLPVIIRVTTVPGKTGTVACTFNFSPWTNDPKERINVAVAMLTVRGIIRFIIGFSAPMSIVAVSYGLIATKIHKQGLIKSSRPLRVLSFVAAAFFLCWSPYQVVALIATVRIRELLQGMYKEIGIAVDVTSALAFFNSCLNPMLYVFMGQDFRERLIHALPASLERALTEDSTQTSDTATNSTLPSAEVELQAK
Description: as §1

FPR2 Ga16-HEK293 (Rel. eff.) [1] | EC50 [1] | FPR1 Ga16-HEK293 (Rel. eff.) [2] | EC50 [2] | SMILES
0.91 | 224 nM | 1.00 | 0.58 nM | CC(C)C[C@H](NC(=O)CNC(=O)Nc1ccc(Br)cc1)C(=O)O [Compound 1, (S)-2-(2-(3-(4-bromophenyl)ureido)acetamido)-4-methylpentanoic acid]
1.05 | 308 nM | 0.98 | 4.93 nM | CCC[C@H](NC(=O)CNC(=O)Nc1ccc(Br)cc1)C(=O)O [Compound 6, (S)-2-(2-(3-(4-bromophenyl)ureido)acetamido)pentanoic acid]
1.07 | 356 nM | 0.97 | 14.7 nM | O=C(CNC(=O)Nc1ccc(Br)cc1)N[C@@H](Cc1ccccc1)C(=O)O [Compound 4, (S)-2-(2-(3-(4-bromophenyl)ureido)acetamido)-3-phenylpropanoic acid]
0.81 | 5630 nM | 0.99 | 76 nM | CC(C)C[C@H](NC(=O)CCNC(=O)Nc1ccc(Br)cc1)C(=O)O [Compound 5, (S)-2-(3-(3-(4-bromophenyl)ureido)propanamido)-4-methylpentanoic acid]
